Measured values from patent US12214092B2, “Systems and methods for treating biological fluids” (Cerus Corporation, priority 2017, dated 2025).
Values joined by “and” are separate entries in the source; they are usually repeats but may differ in a detail not shown here. Identical values can stand only once. Like-named read-outs stand apart in the source and are kept apart here.

Tests used:
[1] = tested on: vesicular stomatitis virus (VSV); type: cell-based; conditions: for Log Inact. / Post-Txt Titer / Pre-Txt Titer: 30 μM, listed as amotosalen; for Log inactivation / Post-treatment titer / Pre-treatment titer: 150 μM
[2] = S-59 and photoproducts post-treatment in platelets in PAS/plasma, 150 μM amotosalen, liquid chromatography mass spectrometry; type: physicochemical
Excerpt: As mass spec extinction coefficients for photoproducts were assumed identical as S-59 extinction coefficients, only relative difference in concentrations (μM) between samples are compared in the following Table 9b, rather than absolute concentrations.

[3] = Residual amotosalen in whole-blood derived plasma, 50 μM, ~6.4 J/cm^2, HPLC; type: physicochemical
Excerpt: This pool and split format was repeated four times to generate four replicates.

[4] = tested on: E. coli; assay: Amotosalen and UV light (265-385 nm LEDs) treatment of E. coli in plasma, six-well plates, colony forming unit assay; type: cell-based; conditions: for Log reduction from S-59 / Log reduction total: ~3 J/cm^2, plasma
Excerpt: This system comprised single arrays facing (e.g., opposing) a platform positioned for the illumination of biological fluids placed on the platform (see e.g., FIG. 5). System controls provided for adjustment of the LEDs during treatment of the biological fluid samples, controlling both the timing and intensity of illumination by the LEDs to achieve a desired light UV light dose. Evaluation of photochemical conversion, photoproduct formation, pathogen inactivation, and plasma and/or platelet quality parameters are performed for each light source wavelength as described previously. In one study using the device, photochemical inactivation of various bacteria were tested for each of the above-referenced LEDs together with amotosalen. The bacteria included E. coli (Gram negative), S. epidermidis (Gram positive), and P. acnes (anaerobe). As there are known germicidal effects of ultraviolet light with wavelengths in the UVC and UVB range, the study was controlled to determine for each LED wavelength the total inactivation levels, as well as inactivation levels specifically resulting from the UV light (without added amotosalen) or the photochemical treatment process itself.

[5] = tested on: S. epidermidis; assay: Amotosalen and two sequential UV light doses (UVC + UVA) treatment of S. epidermidis in plasma, colony forming unit assay; type: cell-based; conditions: 15 μM amotosalen, titer pre-UV 7.51; for Titer Post-Second: ~3 J/cm^2 each
Procedure: (§1) Additionally, any two or more wavelengths of narrow bandwidth light are evaluated in combination, such as for example, photochemical treatment of a biological fluid using amotosalen and ultraviolet light of a first peak wavelength and ultraviolet light of a second peak wavelength, sequentially or concurrently. More specifically, in one example pathogen inactivation of E. coli (Gram negative) and S. epidermidis (Gram positive) bacteria was evaluated using amotosalen and the device with LEDs of wavelengths described in Example 8. […] The spiked plasma units were divided into control (no amotosalen+UV light) and treatment (with amotosalen) conditions, with amotosalen used at 15 μM concentration. The units were aliquoted into six-well plates (5 mL/well) for illumination. Pre-illumination samples were taken and control bacterial titers determined using standard colony forming unit assay. […] Data for pre-illumination titers, post-first illumination titer, post-second illumination titer, and post-treatment (after second illumination) residual amotosalen (S-59) are shown in the following Tables 40-41.

[6] = Residual amotosalen after second illumination (two-wavelength treatment); type: physicochemical; conditions: 15 μM amotosalen, ~3 J/cm^2 each
Procedure: as §1

Cc1oc2c(C)c3oc(=O)cc(C)c3cc2c1COCCN [S-59, 3-(2-aminoethoxymethyl)-2,5,9-trimethylfuro[3,2-g]chromen-7-one]
Log Inact. ([1]; 220 mL, 340 nm LED ~3.0 J/cm^2): 2.28 log and 2.39 log
Post-Txt Titer ([1]; 220 mL, 340 nm LED ~3.0 J/cm^2): 4.32 log10 and 2.85 log10
Log Inact. ([1]; 220 mL, INT 100 ~3.0 J/cm^2): 2.02 log and 1.97 log
Post-Txt Titer ([1]; 220 mL, INT 100 ~3.0 J/cm^2): 4.58 log10 and 3.27 log10
Pre-Txt Titer ([1]; 220 mL): 6.60 log10 and 5.24 log10
Log Inact. ([1]; 350 mL, 340 nm LED ~3.0 J/cm^2): 2.34 log and 2.21 log
Post-Txt Titer ([1]; 350 mL, 340 nm LED ~3.0 J/cm^2): 4.26 log10 and 3.03 log10
Log Inact. ([1]; 350 mL, INT 100 ~3.0 J/cm^2): 1.76 log and 1.66 log
Post-Txt Titer ([1]; 350 mL, INT 100 ~3.0 J/cm^2): 4.93 log10 and 3.58 log10
Pre-Txt Titer ([1]; 350 mL): 6.60 log10 and 5.24 log10
Log inactivation ([1]; 340 nm LED ~6.4 J/cm^2): 4.6 log
Post-treatment titer ([1]; 340 nm LED ~6.4 J/cm^2): 1.7 log PFU
Pre-treatment titer ([1]; 340 nm unit): 6.3 log PFU
Log inactivation ([1]; 365 nm LED ~6.4 J/cm^2): 3.0 log
Post-treatment titer ([1]; 365 nm LED ~6.4 J/cm^2): 3.3 log PFU
Pre-treatment titer ([1]; 365 nm unit): 6.3 log PFU
Pre-treatment titer ([1]; INT-100 unit): 6.3 log PFU
Log inactivation ([1]; INT-100 ~6.4 J/cm^2): 3.4 log
Post-treatment titer ([1]; INT-100 ~6.4 J/cm^2): 2.9 log PFU
Post-illumination concentration (relative, LC-MS) ([2]; 340 nm, ~3.6 J/cm^2): 21.3 µM
Post-illumination concentration (relative, LC-MS) ([2]; 340 nm, ~7.2 J/cm^2): 4.8 µM
Post-illumination concentration (relative, LC-MS) ([2]; 340 nm, ~10.8 J/cm^2): 2.5 µM
Post-illumination concentration (relative, LC-MS) ([2]; INT100, ~3.6 J/cm^2): 37.0 µM
Post-illumination concentration (relative, LC-MS) ([2]; INT100, ~7.2 J/cm^2): 11.6 µM
Post-illumination concentration (relative, LC-MS) ([2]; INT100, ~10.8 J/cm^2): 12.0 µM
residual amotosalen concentration ([3]; 340 nm device): 4.65 µM
residual amotosalen concentration ([3]; INT-100 device): 17.06 µM
Log reduction from S-59 ([4]; 15 μM amotosalen, 265 nm): 0 log
Log reduction total ([4]; 15 μM amotosalen, 265 nm): 4.52 log
Log reduction from S-59 ([4]; 15 μM amotosalen, 280 nm): 0 log
Log reduction total ([4]; 15 μM amotosalen, 280 nm): 4.52 log
Log reduction from S-59 ([4]; 15 μM amotosalen, 310 nm): 1.15 log
Log reduction total ([4]; 15 μM amotosalen, 310 nm): 4.52 log
Log reduction from S-59 ([4]; 15 μM amotosalen, 325 nm): 3.81 log
Log reduction total ([4]; 15 μM amotosalen, 325 nm): 4.52 log
Log reduction from S-59 ([4]; 15 μM amotosalen, 340 nm): 2.94 log
Log reduction total ([4]; 15 μM amotosalen, 340 nm): 4.52 log
Log reduction from S-59 ([4]; 15 μM amotosalen, 365 nm): 2.76 log
Log reduction total ([4]; 15 μM amotosalen, 365 nm): 4.52 log
Log reduction from S-59 ([4]; 15 μM amotosalen, 385 nm): 0.49 log
Log reduction total ([4]; 15 μM amotosalen, 385 nm): 1.5 log
Log reduction from S-59 ([4]; 150 μM amotosalen, 265 nm): 0.54 log
Log reduction total ([4]; 150 μM amotosalen, 265 nm): 5.01 log
Log reduction from S-59 ([4]; 150 μM amotosalen, 280 nm): 0.59 log
Log reduction total ([4]; 150 μM amotosalen, 280 nm): 5.38 log
Log reduction from S-59 ([4]; 150 μM amotosalen, 310 nm): 2.29 log
Log reduction total ([4]; 150 μM amotosalen, 310 nm): 6.23 log
Log reduction from S-59 ([4]; 150 μM amotosalen, 325 nm): 5.36 log
Log reduction total ([4]; 150 μM amotosalen, 325 nm): 5.70 log
Log reduction from S-59 ([4]; 150 μM amotosalen, 340 nm): 4.93 log
Log reduction total ([4]; 150 μM amotosalen, 340 nm): 5.64 log
Log reduction from S-59 ([4]; 150 μM amotosalen, 365 nm): 4.90 log
Log reduction total ([4]; 150 μM amotosalen, 365 nm): 5.30 log
Log reduction from S-59 ([4]; 150 μM amotosalen, 385 nm): 4.34 log
Log reduction total ([4]; 150 μM amotosalen, 385 nm): 4.95 log
photochemical inactivation ([4]; summary for bacteria of Example 8, amotosalen+325 nm and amotosalen+340 nm illumination): greater than 4 logs
Titer Post-Second ([5]; Light 1 265 nm then Light 2 325 nm): <−0.11
Titer Post-Second ([5]; Light 1 265 nm then Light 2 340 nm): <−0.11
Titer Post-Second ([5]; Light 1 265 nm then Light 2 365 nm): <−0.11
Titer Post-First ([5]; Light 1 265 nm ~3 J/cm^2 (then 325 nm)): 4.19
Titer Post-First ([5]; Light 1 265 nm ~3 J/cm^2 (then 340 nm)): 4.37
Titer Post-First ([5]; Light 1 265 nm ~3 J/cm^2 (then 365 nm)): 4.12
Titer Post-Second ([5]; Light 1 280 nm then Light 2 325 nm): <−0.11
Titer Post-Second ([5]; Light 1 280 nm then Light 2 340 nm): <−0.11
Titer Post-Second ([5]; Light 1 280 nm then Light 2 365 nm): <−0.11
Titer Post-First ([5]; Light 1 280 nm ~3 J/cm^2 (then 325 nm)): 4.13
Titer Post-First ([5]; Light 1 280 nm ~3 J/cm^2 (then 340 nm)): 4.51
Titer Post-First ([5]; Light 1 280 nm ~3 J/cm^2 (then 365 nm)): 4.19
Titer Post-Second ([5]; Light 1 325 nm then Light 2 265 nm): <−0.11
Titer Post-Second ([5]; Light 1 325 nm then Light 2 280 nm): <−0.11
Titer Post-First ([5]; Light 1 325 nm ~3 J/cm^2 (then 265 nm)): <−0.11
Titer Post-First ([5]; Light 1 325 nm ~3 J/cm^2 (then 280 nm)): <−0.11
Titer Post-Second ([5]; Light 1 340 nm then Light 2 265 nm): <−0.11
Titer Post-Second ([5]; Light 1 340 nm then Light 2 280 nm): <−0.11
Titer Post-First ([5]; Light 1 340 nm ~3 J/cm^2 (then 265 nm)): <−0.11
Titer Post-First ([5]; Light 1 340 nm ~3 J/cm^2 (then 280 nm)): 0.73
Titer Post-Second ([5]; Light 1 365 nm then Light 2 265 nm): <−0.11
Titer Post-Second ([5]; Light 1 365 nm then Light 2 280 nm): <−0.11
Titer Post-First ([5]; Light 1 365 nm ~3 J/cm^2 (then 265 nm)): <−0.11
Titer Post-First ([5]; Light 1 365 nm ~3 J/cm^2 (then 280 nm)): <−0.11
S-59 ([6]; E. coli plasma, UV 1 265 nm then UV 2 325 nm): 4.76 µM
S-59 ([6]; E. coli plasma, UV 1 265 nm then UV 2 340 nm): 3.89 µM
S-59 ([6]; E. coli plasma, UV 1 265 nm then UV 2 365 nm): 8.07 µM
S-59 ([6]; E. coli plasma, UV 1 280 nm then UV 2 325 nm): 4.44 µM
S-59 ([6]; E. coli plasma, UV 1 280 nm then UV 2 340 nm): 3.62 µM
S-59 ([6]; E. coli plasma, UV 1 280 nm then UV 2 365 nm): 7.96 µM
S-59 ([6]; E. coli plasma, UV 1 325 nm then UV 2 265 nm): 4.88 µM
S-59 ([6]; E. coli plasma, UV 1 325 nm then UV 2 280 nm): 4.66 µM
S-59 ([6]; E. coli plasma, UV 1 340 nm then UV 2 265 nm): 4.43 µM
S-59 ([6]; E. coli plasma, UV 1 340 nm then UV 2 280 nm): 4.46 µM
S-59 ([6]; E. coli plasma, UV 1 365 nm then UV 2 265 nm): 8.13 µM
S-59 ([6]; E. coli plasma, UV 1 365 nm then UV 2 280 nm): 8.00 µM
S-59 ([6]; S. epidermidis plasma, Light 1 265 nm then Light 2 325 nm): 4.82 µM
S-59 ([6]; S. epidermidis plasma, Light 1 265 nm then Light 2 340 nm): 3.93 µM
S-59 ([6]; S. epidermidis plasma, Light 1 265 nm then Light 2 365 nm): 8.17 µM
S-59 ([6]; S. epidermidis plasma, Light 1 280 nm then Light 2 325 nm): 4.50 µM
S-59 ([6]; S. epidermidis plasma, Light 1 280 nm then Light 2 340 nm): 3.77 µM
S-59 ([6]; S. epidermidis plasma, Light 1 280 nm then Light 2 365 nm): 8.01 µM
S-59 ([6]; S. epidermidis plasma, Light 1 325 nm then Light 2 265 nm): 4.92 µM
S-59 ([6]; S. epidermidis plasma, Light 1 325 nm then Light 2 280 nm): 4.63 µM
S-59 ([6]; S. epidermidis plasma, Light 1 340 nm then Light 2 265 nm): 4.47 µM
S-59 ([6]; S. epidermidis plasma, Light 1 340 nm then Light 2 280 nm): 4.46 µM
S-59 ([6]; S. epidermidis plasma, Light 1 365 nm then Light 2 265 nm): 8.39 µM
S-59 ([6]; S. epidermidis plasma, Light 1 365 nm then Light 2 280 nm): 8.07 µM
